Columns and labels:
in vivo = assay: in vivo; design: species or system Beagle female dogs; conditions: female, Beagle, dog, po, 100 mg/kg
Procedure: Eight pure-bred Beagle females dogs having 20 weeks of age and weighing between 5.0 and 7.5 kg have been divided into two groups of four.
Each sample has been transferred into a tube containing heparin as anticoagulant and has been centrifuged; the plasma has been divided into two aliquots, each of 500 μl, and has been frozen at −20° C.
Tmax=time at which the Cmax is reached;
AUC=area under the concentration-time curve calculated through the linear trapezoidal rule.

[1] = Hygroscopicity of the polymorphous forms; format: physicochemical; conditions: absorb water in a reversible way under suitable pressure and ambient humidity
Text: Both the forms δ and ε of the rifaximin are hygroscopic, they absorb water in a reversible way during the time in the presence of suitable conditions of pressure and humidity in the ambient and are susceptible of transformation to other forms.

## CO[C@H]1/C=C/O[C@@]2(C)Oc3c(C)c(O)c4c(O)c(c5c(nc6cc(C)ccn65)c4c3C2=O)NC(=O)/C(C)=C\C=C\[C@H](C)[C@H](O)[C@@H](C)[C@@H](O)[C@@H](C)[C@H](OC(C)=O)[C@@H]1C [Polymorph ε, rifaximin]
In vivo
  AUC0-24 Mean: 0.042 µg·h/mL
  Cmax Mean: 0.00686 µg/mL
  Tmax: 4 h
[1]
  hygroscopicity (in words): hygroscopic

## CO[C@H]1/C=C/O[C@@]2(C)Oc3c(C)c(O)c4c(O)c(c5c(nc6cc(C)ccn65)c4c3C2=O)NC(=O)/C(C)=C\C=C\[C@H](C)[C@H](O)[C@@H](C)[C@@H](O)[C@@H](C)[C@H](OC(C)=O)[C@@H]1C [Polymorph δ, rifaximin]
In vivo
  AUC0-24 Mean: 0.801 µg·h/mL
  Cmax Mean: 0.30831 µg/mL
  Tmax Mean: 2 h
In vivo; Cmax
  Cmax: 0.308 µg/mL
[1]
  hygroscopicity (in words): hygroscopic

Source: patent publication US20200277301A1 (ALFASIGMA S.P.A., priority 2005, published 2020)
